Experimental data: PubChem BioAssay (NCI)
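Protocol summary: plate cells (96-well), add compound at 5 concentrations, incubate 48 h, interpolate endpoints linearly. GI50 is the concentration that inhibits growth by half. TGI: concentration producing complete growth inhibition.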

Tests used:
Assay in all cases: DTP human tumour cell line panel, 48 h
KM12 colon = system: KM12 colon
HOP-92 NSCLC = system: HOP-92 NSCLC
SK-MEL-2 melanoma = system: SK-MEL-2 melanoma
UACC-62 melanoma = system: UACC-62 melanoma
UO-31 renal = system: UO-31 renal
MCF7 breast = system: MCF7 breast
NCI-H23 lung = system: NCI-H23 lung
OVCAR-8 ovarian = system: OVCAR-8 ovarian
COLO 205 colon = system: COLO 205 colon
MALME-3M melanoma = system: MALME-3M melanoma

Row | SMILES | GI50 (KM12 colon) | TGI (KM12 colon) | GI50 (HOP-92 NSCLC) | TGI (HOP-92 NSCLC) | GI50 (SK-MEL-2 melanoma) | TGI (SK-MEL-2 melanoma) | GI50 (UACC-62 melanoma) | TGI (UACC-62 melanoma) | GI50 (UO-31 renal) | TGI (UO-31 renal) | GI50 (MCF7 breast) | TGI (MCF7 breast) | GI50 (NCI-H23 lung) | TGI (NCI-H23 lung) | GI50 (OVCAR-8 ovarian) | TGI (OVCAR-8 ovarian) | GI50 (COLO 205 colon) | TGI (COLO 205 colon) | GI50 (MALME-3M melanoma) | TGI (MALME-3M melanoma)
1 | Cn1c(=O)c(Oc2ccc(F)cc2F)cc2cnc(NCCS(C)(=O)=O)nc21 | > 25 µM | > 25 µM | > 25 µM | > 25 µM | > 25 µM | > 25 µM | > 25 µM | > 25 µM | > 25 µM | > 25 µM | > 25 µM | > 25 µM | > 25 µM | > 25 µM | > 25 µM | > 25 µM | > 25 µM | > 25 µM | > 25 µM | > 25 µM
2 | COc1ccc(OC)c(Nc2nc(-c3c(C)nc4sccn34)cs2)c1 | > 100 µM | > 100 µM | 8.63 µM | 98.4 µM | > 100 µM | > 100 µM | 51.8 µM | > 100 µM | 29 µM | > 100 µM | 1.95 µM | > 100 µM | 51.1 µM | > 100 µM | 7.22 µM | > 100 µM | > 100 µM | > 100 µM | > 100 µM | > 100 µM
3 | C=C1c2c(Cl)ccc(O)c2C(O)=C2C(=O)[C@]3(O)C(O)=C(C(N)=O)C(=O)[C@@H](N(C)C)[C@@H]3[C@@H](O)[C@H]12 | 1.49 µM | 6.17 µM | 0.669 µM | 2.16 µM | 0.727 µM | 1.98 µM | 0.79 µM | 2.73 µM | 1.19 µM | 6.22 µM | 1.76 µM | 6.66 µM | 1.08 µM | 4.14 µM | 1.32 µM | 8.12 µM | 1.11 µM | 3.02 µM | 1.15 µM | 3.45 µM
4 | Cn1cnc([N+](=O)[O-])c1Sc1ncn[nH]1 | > 100 µM | > 100 µM | 29.2 µM | > 100 µM | 40.9 µM | > 100 µM | 96.3 µM | > 100 µM | 35.2 µM | > 100 µM | > 100 µM | > 100 µM | 99.5 µM | > 100 µM | > 100 µM | > 100 µM | 28.4 µM | > 100 µM | 23.9 µM | > 100 µM
5 | CCN(CC)CCOc1ccc(C(=O)/C=C\c2ccc(Cl)cc2Cl)cc1 | 1.92 µM | 4.16 µM | 3.63 µM | 16.3 µM | 15 µM | 28.5 µM | 2.08 µM | 4.71 µM | 4.06 µM | 17.2 µM | 1.29 µM | 3.12 µM | 7.15 µM | 22.1 µM | 13.4 µM | 28.1 µM | 1.95 µM | 5.15 µM | 3.41 µM | 15.3 µM
6 | O=C1OC(CN2CCOCC2)CN1/N=C/c1ccc([N+](=O)[O-])o1 (stereo not given) | – | 45.8 µM | – | > 100 µM | – | > 100 µM | – | 99.2 µM | – | > 100 µM | – | > 100 µM | – | 53.9 µM | – | > 100 µM | – | > 100 µM | – | 46.6 µM
7 | C=C1[C@@H]([C@@]2(C)C=CC(=O)C(C)(C)[C@@H]2CC(=O)OC)CC[C@@]2(C)C(c3ccoc3)OC(=O)[C@H]3O[C@]132 (stereo not given in full) | – | > 100 µM | – | > 100 µM | – | > 100 µM | – | > 100 µM | – | > 100 µM | – | > 100 µM | – | > 100 µM | – | > 100 µM | – | > 100 µM | – | > 100 µM
